Target: T1, PR65 (PP2A scaffold subunit A) (Homo sapiens, UniProt P30153)
T1 construct: gene PPP2R1A; WT PR65, 15 HEAT repeats (GST tag cleaved); ybbR-tagged PR65 for optical tweezers
Assay: fluorescence polarisation (PR65 titrated into fluorescent ATUX-8385); also nanoDSF shift and optical tweezers
Format: binding

T1 sequence (P30153 2-589): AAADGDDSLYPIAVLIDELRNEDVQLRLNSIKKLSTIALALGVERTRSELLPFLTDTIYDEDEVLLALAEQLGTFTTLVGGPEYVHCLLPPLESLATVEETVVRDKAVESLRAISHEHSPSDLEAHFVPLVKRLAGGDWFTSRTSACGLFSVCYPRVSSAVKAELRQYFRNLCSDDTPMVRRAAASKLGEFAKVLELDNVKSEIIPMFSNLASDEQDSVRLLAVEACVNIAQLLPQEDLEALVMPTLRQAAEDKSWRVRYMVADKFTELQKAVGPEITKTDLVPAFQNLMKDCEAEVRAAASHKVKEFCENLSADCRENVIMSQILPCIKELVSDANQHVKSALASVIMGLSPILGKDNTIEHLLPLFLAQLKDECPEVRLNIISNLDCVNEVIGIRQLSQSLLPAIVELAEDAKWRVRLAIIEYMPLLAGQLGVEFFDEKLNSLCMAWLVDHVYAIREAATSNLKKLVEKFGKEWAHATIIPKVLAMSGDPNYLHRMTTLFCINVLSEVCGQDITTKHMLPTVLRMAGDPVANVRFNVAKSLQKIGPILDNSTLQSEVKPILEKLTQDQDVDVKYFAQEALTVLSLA

Which Kd does the source give for O=S(=O)(NC1CNCC(n2c3ccc(F)cc3c3cc(F)ccc32)C1O)c1ccc(OC(F)(F)F)cc1 (stereo not shown) [ATUX-8385] here?
Its Kd is 4.7 ± 1.1 µM.

— article doi:10.1101/2025.07.24.666388, “Small Molecule Activators of Protein Phosphatase 2A Exert Global Stabilising Effects on the Scaffold PR65” (bioRxiv, 2025)
